Data taken from US11623931B2, “Bicyclic compounds for diagnosis and therapy” (AC IMMUNE SA, priority 2016, dated 2023).

Legend:
[1] = tested on: Aβ plaques on AD sections; test: Assay 1 (fluorescence based assay): direct staining of human Alzheimer's disease brain sections; type: binding; parameters: key: − (No); +/− (very weak); + (weak); ++ (good); +++ (strong); settings: staining intensity; compound 100 μM, frozen amygdala sections, AD Braak stage V-VI
Experimental: Direct Staining of Compounds of this Invention to Human Alzheimer's Disease Brain Sections 20 μm frozen sections from amygdala were purchased from an external provider (Tissue Solutions Ltd.). Donors were diagnosed with AD, Braak stage V-VI (Braak et al., Neurobiol. Aging, 1995, 16, 271-284) and thus with confirmed Aβ pathology. Sections were kept at −80° C. until start of the experiment. Brain sections were encircled with pap pen liquid blocker to reduce the volume of solution for the different incubations. Sections were fixed for 15 min at 4° C. with 4% paraformaldehyde and washed three times for 5 minutes with PBS at room temperature. Test compounds were incubated on the sections at 100 μM in 50% ethanol in water for 30 min at room temperature, followed by three washes of 5 minutes with PBS. Sections were then saturated and permeabilized in blocking buffer (PBS, 10% NGS, 0.25% Triton) for 1 hour at room temperature and then incubated for 2 hours at room temperature with the primary antibodies against AR, 4G8, (Covance, SIG-39220), diluted 1/250 in PBS, 5% NGS, and 0.25% Triton. After three washes in PBS, the sections were incubated for 30 minutes at room temperature with a secondary anti-mouse antibody labeled with AlexaFluor555 (Invitrogen A21422) and further washed three times in PBS. To reduce auto-fluorescence of the tissue, the sections were incubated in a solution of 0.1% Sudan Black (Sigma 199664) in 70% ethanol for 15 min at room temperature, followed by four washes with PBS and mounted under cover slips using ProLong Gold Antifade reagent (Invitrogen P36930). Sections were analyzed on the Nikon Eclipse Ti microscope to detect staining and imaged using Nikon DS-Fi2 camera and NIS-Element AR4.13.1 software.

[2] = molecular target: T1, aSyn aggregates on PD sections (Homo sapiens, UniProt P37840); test: Assay 1 (fluorescence based assay): direct staining of human Parkinson's disease brain sections; type: binding; parameters: key: − (No); +/− (very weak); + (weak); ++ (good); +++ (strong); settings: staining intensity; compound 100 μM, frozen amygdala sections, PD Braak stage V-VI
T1 construct: 20 μm frozen sections from amygdala were purchased from an external provider (Tissue Solutions Ltd.); tissue Tissue Solutions Ltd; host or cells: human PD amygdala, frozen sections, Braak stage V-VI
Excerpt: Assay 1 (Fluorescence Based Assay):
Direct Staining of Compounds of this Invention to Human Parkinson's Disease Brain Sections
20 μm frozen sections from amygdala were purchased from an external provider (Tissue Solutions Ltd.). Donors were diagnosed with PD, Braak stage V-VI (Braak et al., Neurobiol. Aging, 2003, 24, 197-211) and thus with confirmed aSyn pathology. PD donors, Braak stage V-VI with mixed pathology, containing aSyn aggregates as well as Aβ plaques, were also used in this assay. Sections were kept at −80° C. until start of the experiment.
Brain sections were encircled with pap pen liquid blocker to reduce the volume of solution for the different incubations. Sections were fixed for 15 min at 4° C. with 4% paraformaldehyde and washed three times for 5 minutes with PBS (phosphate buffered saline) at room temperature. Test compounds were incubated on the sections at 100 μM in 50% ethanol in water for 30 min at room temperature, followed by three washes of 5 minutes with PBS. Sections were then saturated and permeabilized in blocking buffer (PBS, 10% NGS, 0.25% Triton) for 1 hour at room temperature and then incubated for 2 hours at room temperature with the primary antibodies against aSyn: aSyn-211 (SantaCruz Biotechnology sc-12767) or aSyn-pS129 (Abcam AB51253), and primary antibody against AR, 4G8, (Covance, SIG-39220). All primary antibodies diluted 1/250 in PBS, 5% NGS, 0.25% Triton. After three washes in PBS, the sections were incubated for 30 minutes at room temperature with a secondary anti-mouse antibody labeled with AlexaFluor555 (Invitrogen A21422) or anti-rabbit antibody labeled with AlexaFluor555 (Invitrogen A21428) and further washed three times in PBS. To reduce auto-fluorescence of the tissue, the sections were incubated in a solution of 0.1% Sudan Black (Sigma 199664) in 70% ethanol for 15 min at room temperature, followed by four washes with PBS and mounted under cover slips using ProLong Gold Antifade reagent (Invitrogen P36930).
Sections were analyzed on the Nikon Eclipse Ti microscope to detect staining and imaged using Nikon DS-Fi2 camera and NIS-Element AR4.13.1 software.

Row | Structure (SMILES) | Staining of Aβ plaques on AD sections [1] | Staining of aSyn aggregates on PD sections [2]
1 | CNc1ccc(-c2ccc3cc(-c4cccc(OC)c4O)sc3n2)cn1 [Example 3] | ++ | ++
2 | CNc1ccc(-c2ccc3cc(-c4ccc(C#N)cn4)sc3n2)cn1 [Example 5] | + | +
3 | CNc1ccc(-c2ccc3cc(-c4ccccc4OC)sc3n2)cn1 [Example 7] | +++ | ++
4 | CNc1ccc(-c2ccc3cc(-c4ccc(F)nc4)sc3n2)cn1 [Example 8] | +++ | ++
5 | CNc1ccc(-c2ccc3cc(-c4cccc(OC)c4)sc3n2)cc1 [Example 9] | ++ | ++
6 | CNc1ccc(-c2cc3ccc(-c4ccc(OCCF)cc4)nc3s2)cc1 [Example 10] | +++ | +
7 | CNc1ccc(-c2ccc3cc(-c4ccc(OCCF)cc4)sc3n2)cc1 [Example 11] | ++ | +
8 | FCCOc1ccc(-c2cc3ccc(-c4ccc(F)nc4)nc3s2)cc1 [Example 12] | ++ | +
9 | COc1ccc(/C=C/c2ccc3cc(-c4ccc(OCCF)cc4)sc3n2)cc1 [Example 13] | +++ | ++
10 | CNc1ccc(-c2ccc3cc(-c4cccnc4)sc3n2)cc1 [Example 14] | +++ | ++
11 | COc1ccc(/C=C/c2ccc3cc(-c4cccnc4)sc3n2)cc1 [Example 15] | +++ | +++
12 | COc1cccc(/C=C/c2ccc3cc(-c4cccnc4)sc3n2)c1 [Example 16] | ++ | ++
13 | c1cncc(-c2cc3ncc(-c4ccc(N5CCCC5)nc4)cc3s2)c1 [Example 18] | +++ | +++
14 | c1cncc(-c2ccc3nc(-c4ccc(N5CCCC5)nc4)sc3c2)c1 [Example 19] | +++ | +++
15 | Cn1cc(-c2ccc3sc(-c4ccc(N5CCCC5)nc4)nc3c2)cn1 [Example 20] | − | +
16 | c1ccc(-c2cc3ccc(-c4ccc(N5CCCC5)nc4)nc3s2)nc1 [Example 21] | ++ | ++
17 | c1cncc(-c2cnc3sc(-c4ccc(N5CCCC5)nc4)nc3c2)c1 [Example 23] | + | ++
18 | c1cncc(-c2cc3nc(-c4ccc(N5CCCC5)nc4)sc3cn2)c1 [Example 24] | + | ++
19 | c1n[nH]cc1-c1cc2nc(-c3ccc(N4CCCC4)nc3)sc2cn1 [Example 25] | + | ++
20 | Fc1cncc(-c2ccc3sc(-c4ccc(N5CCCC5)nc4)cc3n2)c1 [Example 28] | + | +
21 | CN(C)c1ncc(-c2ccc3cc(-c4cccnc4)sc3n2)cn1 [Example 29] | ++ | +
22 | CNc1ccc(-c2ccc3cc(-c4ccc(OC)c(O)c4)sc3n2)cc1 [Example 30] | ++ | ++
23 | CNc1ccc(-c2ccc3cc(-c4ccnc(OC)c4)sc3n2)cc1 [Example 31] | ++ | +
24 | c1cncc(-c2cc3ccc(-c4ccc(N5CCCC5)nc4)nc3s2)c1 [Example 32] | +++ | +++
